# Test system: HBsAg
# Assay: HBsAg assay (CLIA of secreted HBsAg in HepG2.2.15 culture supernatant)
# Assay type: cell-based, HBV
# Details: Hepatitis B virus, HepG2.2.15, read-out: IC50 (HBsAg assay)
# Description: HepG2.2.15 cells (Acs et al. Proc Natl Acad Sci USA, 84, (1987), 4641-4), a constitutively HBV-expressing cell line were cultured in DMEM+Glutamax-I medium (Invitrogen, Carlsbad, Calif., USA), supplemented with 10% fetal bovine serum (Invitrogen) and G418 (Invitrogen) at a final concentration of 200 mg/L and maintained in 5% CO2 at 37° C.
# HepG2.2.15 cells were seeded in duplicate into white, 96-well plates at 1.5×10^4 cells/well. The cells were treated with a three-fold serial dilution series of the compounds in DMSO. The final DMSO concentration in all wells was 1% and DMSO was used as no drug control.
# The HBsAg chemiluminescence immunoassay (CLIA) kit (Autobio Diagnostics Co., Zhengzhou, China, Catalog number: CL0310-2) was used to measure the levels of secreted HBV antigens semi-quantitatively. For the detection 50 μL/well culture supernatant was used and HBsAg was quantified using HBsAg chemiluminescence immunoassay (CLIA) kit (Autobio Diagnostics Co., Zhengzhou, China, Catalog number: CL0310-2), 50 μL of the supernatant was transferred to the CLIA assay plate and 50 μL of enzyme conjugate reagent was added into each well. The plates were sealed and gently agitated for 1 hour at room temperature. The supernatant-enzyme-mixture was discarded and wells were washed 6 times with 300 μL of PBS. The residual liquid was removed by plating the CLIA plate right side down on absorbent tissue paper. 25 μL of substrates A and B were added to each well. Luminance was measured using a luminometer (Mithras LB 940 Multimode Microplate Reader) after 10 minutes incubation. Dose-response curves were generated and the IC50 value was extrapolated by using the E-WorkBook Suite (ID Business Solutions Ltd., Guildford, UK). The IC50 was defined as the compound concentration at which HBsAg secretion was reduced by 50% compared to the no drug control.
row,SMILES,IC50
1,"COc1ccc(C(=O)N2CCc3nc(-c4ccccn4)ncc3C2)nc1 [Example 29, (5-Methoxy-2-pyridyl)-[2-(2-pyridyl)-7,8-dihydro-5H-pyrido[4,3-d]pyrimidin-6-yl]methanone]",34.2 µM
2,"COc1ccc(C(=O)N2CCc3nc(-c4ccccn4)ncc3C2)cc1Cl [Example 21, (3-Chloro-4-methoxy-phenyl)-[2-(2-pyridyl)-7,8-dihydro-5H-pyrido[4,3-d]pyrimidin-6-yl]methanone]",5.07 µM
3,"Cc1ccc(C(=O)N2CCc3nc(-c4ccccn4)ncc3C2)cn1 [Example 31, (6-Methyl-3-pyridyl)-[2-(2-pyridyl)-7,8-dihydro-5H-pyrido[4,3-d]pyrimidin-6-yl]methanone]",31.9 µM
4,"CC1c2cnc(-c3ccccn3)nc2CCN1C(=O)c1cccs1 (stereo not shown) [Example 49, [5-Methyl-2-(2-pyridyl)-7,8-dihydro-5H-pyrido[4,3-d]pyrimidin-6-yl]-(2-thienyl)methanone]",1.11 µM
5,"CC1c2cnc(-c3ccccn3)nc2CCN1C(=O)c1cncs1 (stereo not shown) [Example 54, [5-Methyl-2-(2-pyridyl)-7,8-dihydro-5H-pyrido[4,3-d]pyrimidin-6-yl]-thiazol-5-yl-methanone]",11.5 µM
6,"Cc1csc(C(=O)N2CCc3nc(-c4ccccn4)ncc3C2)c1 [Example 32, (4-Methyl-2-thienyl)-[2-(2-pyridyl)-7,8-dihydro-5H-pyrido[4,3-d]pyrimidin-6-yl]methanone]",1.67 µM
7,"CC1c2cnc(-c3ccccn3)nc2CCN1C(=O)c1ccsc1 (stereo not shown) [Example 44, [5-Methyl-2-(2-pyridyl)-7,8-dihydro-5H-pyrido[4,3-d]pyrimidin-6-yl]-(3-thienyl)methanone]",2.46 µM
8,"Cc1nc(C(=O)N2CCc3nc(-c4ccccn4)ncc3C2C)sc1C (stereo not shown) [Example 61, (4,5-Dimethylthiazol-2-yl)-[5-methyl-2-(2-pyridyl)-7,8-dihydro-5H-pyrido[4,3-d]pyrimidin-6-yl]methanone]",0.082 µM
9,"CC1c2cnc(-c3ncccn3)nc2CCN1C(=O)c1n[nH]c2ccc(F)cc12 (stereo not shown) [Example 64, (5-Fluoro-1H-indazol-3-yl)-(5-methyl-2-pyrimidin-2-yl-7,8-dihydro-5H-pyrido[4,3-d]pyrimidin-6-yl)methanone]",0.21 µM
10,"COc1cc(C(=O)N2CCc3nc(-c4ccccn4)ncc3C2)ccc1F [Example 9, (4-Fluoro-3-methoxy-phenyl)-[2-(2-pyridyl)-7,8-dihydro-5H-pyrido[4,3-d]pyrimidin-6-yl]methanone]",11.5 µM
11,"COc1c(F)cc(C(=O)N2CCc3nc(-c4ccccn4)ncc3C2)cc1F [Example 30, (3,5-Difluoro-4-methoxy-phenyl)-[2-(2-pyridyl)-7,8-dihydro-5H-pyrido[4,3-d]pyrimidin-6-yl]methanone]",25.2 µM
12,"COCCCOc1ccc(C(=O)N2CCc3nc(-c4ccccn4)ncc3C2)cc1Cl [Example 24, [3-Chloro-4-(3-methoxypropoxy)phenyl]-[2-(2-pyridyl)-7,8-dihydro-5H-pyrido[4,3-d]pyrimidin-6-yl]methanone]",3.18 µM
13,"CCOc1ccc(C(=O)N2CCc3nc(-c4ccccn4)ncc3C2)cc1F [Example 13, (4-Ethoxy-3-fluoro-phenyl)-[2-(2-pyridyl)-7,8-dihydro-5H-pyrido[4,3-d]pyrimidin-6-yl]methanone]",6.56 µM
14,"O=C(c1cc(F)cc(F)c1)N1CCc2nc(-c3ccccn3)ncc2C1 [Example 37, (3,5-Difluorophenyl)-[2-(2-pyridyl)-7,8-dihydro-5H-pyrido[4,3-d]pyrimidin-6-yl]methanone]",25.8 µM
15,"O=C(c1ccc(F)c(F)c1)N1CCc2nc(-c3ccccn3)ncc2C1 [Example 10, (3,4-Difluorophenyl)-[2-(2-pyridyl)-7,8-dihydro-5H-pyrido[4,3-d]pyrimidin-6-yl]methanone]",26.2 µM
16,"CC1c2cnc(-c3ccccn3)nc2CCN1C(=O)c1ccc(Br)s1 (stereo not shown) [Example 53, (5-Bromo-2-thienyl)-[5-methyl-2-(2-pyridyl)-7,8-dihydro-5H-pyrido[4,3-d]pyrimidin-6-yl]methanone]",0.51 µM

# — patent publication US10968217B2, “Tetrahydropyridopyrimidines for the treatment and prophylaxis of hepatitis B virus infection” (Hoffmann-La Roche Inc., priority 2016, dated 2021)
